The numbers were not newly measured in patent US20090143360A1, “Oxcarbazepine Formulation” (priority 2005, published 2009), which cites them from elsewhere.

For the compound `NC(=O)N1c2ccccc2CC(=O)c2ccccc21` [Oxcarbazepine, 10,11-Dihydro-10-oxo-5H-dibenz[b,f]azepine-5-carboxamide], the Solubility in water entry is listed as “very low”.
